Laboratory results: patent US10703764B2, “Benzopiperazine compositions as BET bromodomain inhibitors” (FORMA Therapeutics, Inc., priority 2013, dated 2020)

Legend:
MV4-11 cells = experiment: Oncology cell growth assay (3-day proliferation, CellTiter-Glo); format: cell-based; conditions: Homo sapiens, MV4-11, 72 h, AML cell line MV4-11, 72 hours, compounds grouped by IC50 range, read-out: MV4-11 IC50 (inhibition of proliferation, gIC50)
How it was run: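 A 3-day proliferation test used MV4-11 cells seeded at 3000 per well with eight compound concentrations (10 μM top, 3-fold dilution) at 37° C in 5% CO2. CellTiter-Glo luminescence defined viable cell signal. A four-parameter logistic curve against DMSO and background wells gave the gIC50.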

BRD4 BD1 = biological target: T1, BRD4 BD1 (Homo sapiens, UniProt O60885); experiment: AlphaScreen binding assay, BRD4 Bromodomain 1
T1 construct: made in house
How it was run: (§1)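 Compound dilution series were mixed with His-tagged BRD4 bromodomain and biotinylated tetra-acetylated H4 (1-21) peptide at pH 7.3 (BD1 and peptide at 50 nM, BD2 and peptide at 100 nM). Donor and acceptor beads were then added, and plates were equilibrated at least 1 h before reading. IC50 values were fitted with a four-parameter logistic model.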

BRD4 BD2 = biological target: T2, BRD4 BD2 (Homo sapiens, UniProt O60885); experiment: AlphaScreen binding assay, BRD4 Bromodomain 2
T2 construct: made in house
How it was run: as §1

| IC50 (MV4-11 cells) [nM] | IC50 (BRD4 BD1) [nM] | IC50 (BRD4 BD2) [nM] | SMILES |
| --- | --- | --- | --- |
| 100 to 500 | 100 to 1000 | 50 to 500 | CC(=O)N1c2ccc(-c3cnn(C4COC4)c3)cc2N(C(=O)OCC2CCC2)C[C@@H]1C [Example I-60, (S)-cyclobutylmethyl 4-acetyl-3-methyl-7-(1-(oxetan-3-yl)-1H-pyrazol-4-yl)-3,4-dihydroquinoxaline-1(2H)-carboxylate] |
| 100 to 500 | 100 to 1000 | 50 to 500 | CC(=O)N1c2ccc(-c3cnn(C4COC4)c3)cc2N(C(=O)OCC(Cl)Cl)C[C@@H]1C [Example I-62, (S)-2,2-dichloroethyl 4-acetyl-3-methyl-7-(1-(oxetan-3-yl)-1H-pyrazol-4-yl)-3,4-dihydroquinoxaline-1(2H)-carboxylate] |
| 100 to 500 | < 100 | < 50 | CC(=O)N1c2ccc(-c3cnn(C4COC4)c3)cc2N(C(=O)OC2CC(F)(F)C2)C[C@@H]1C [Example I-65, (S)-3,3-difluorocyclobutyl 4-acetyl-3-methyl-7-(1-(oxetan-3-yl)-1H-pyrazol-4-yl)-3,4-dihydroquinoxaline-1(2H)-carboxylate] |
| 100 to 500 | < 100 | < 50 | CC(=O)N1c2ccc(-c3cnn(C4COC4)c3)cc2N(C(=O)OCC2(F)COC2)C[C@@H]1C [Example I-66, (S)-(3-fluorooxetan-3-yl)methyl 4-acetyl-3-methyl-7-(1-(oxetan-3-yl)-1H-pyrazol-4-yl)-3,4-dihydroquinoxaline-1(2H)-carboxylate] |
| 100 to 500 | < 100 | < 50 | CC(=O)N1c2ccc(-c3cnn(C4COC4)c3)cc2N(C(=O)OCCC(F)(F)F)C[C@@H]1C [Example I-69, (S)-3,3,3-trifluoropropyl 4-acetyl-3-methyl-7-(1-(oxetan-3-yl)-1H-pyrazol-4-yl)-3,4-dihydroquinoxaline-1(2H)-carboxylate] |
| 100 to 500 | < 100 | < 50 | CC(=O)N1c2ccc(-c3cnn(C4COC4)c3)cc2N(C(=O)OCC(F)(F)F)C[C@@H]1C [Example I-71, (S)-2,2,2-trifluoroethyl 4-acetyl-3-methyl-7-(1-(oxetan-3-yl)-1H-pyrazol-4-yl)-3,4-dihydroquinoxaline-1(2H)-carboxylate] |
| 100 to 500 | 100 to 1000 | < 50 | CC(=O)N1c2ccc(-c3cnn(C4COC4)c3)cc2N(C(=O)OC(CF)CF)C[C@@H]1C [Example I-72, (S)-1,3-difluoropropan-2-yl 4-acetyl-3-methyl-7-(1-(oxetan-3-yl)-1H-pyrazol-4-yl)-3,4-dihydroquinoxaline-1(2H)-carboxylate] |
| 100 to 500 | < 100 | < 50 | CC(=O)N1c2ccc(-c3cnn(C4COC4)c3)cc2N(C(=O)OC2CC3CC3C2)C[C@@H]1C (stereo partly drawn) [Example I-74, (3S)-bicyclo[3.1.0]hexan-3-yl 4-acetyl-3-methyl-7-(1-(oxetan-3-yl)-1H-pyrazol-4-yl)-3,4-dihydroquinoxaline-1(2H)-carboxylate] |
| 100 to 500 | < 100 | < 50 | CC(=O)N1c2ccc(-c3cnn(C4COC4)c3)cc2N(C(=O)OCC(C)(C)F)C[C@@H]1C [Example I-77, (S)-2-fluoro-2-methylpropyl 4-acetyl-3-methyl-7-(1-(oxetan-3-yl)-1H-pyrazol-4-yl)-3,4-dihydroquinoxaline-1(2H)-carboxylate] |
| 100 to 500 | 100 to 1000 | 50 to 500 | CC(=O)N1c2ccc(-c3cnn(C4CC4)c3)cc2N(C(=O)OCCC(F)(F)F)C[C@@H]1C [Example I-78, (S)-3,3,3-trifluoropropyl 4-acetyl-7-(1-cyclopropyl-1H-pyrazol-4-yl)-3-methyl-3,4-dihydroquinoxaline-1(2H)-carboxylate] |
| 100 to 500 | 100 to 1000 | 50 to 500 | CC(=O)N1c2ccc(-c3cnn(C4CC4)c3)cc2N(C(=O)OCC(F)(F)F)C[C@@H]1C [Example I-79, (S)-2,2,2-trifluoroethyl 4-acetyl-7-(1-cyclopropyl-1H-pyrazol-4-yl)-3-methyl-3,4-dihydroquinoxaline-1(2H)-carboxylate] |
| 100 to 500 | 100 to 1000 | 50 to 500 | CC(=O)N1c2ccc(-c3cnn(C4CC4)c3)cc2N(C(=O)OC(CF)CF)C[C@@H]1C [Example I-80, (S)-1,3-difluoropropan-2-yl 4-acetyl-7-(1-cyclopropyl-1H-pyrazol-4-yl)-3-methyl-3,4-dihydroquinoxaline-1(2H)-carboxylate] |
| 100 to 500 | 1000 to 10000 | > 500 | CC(=O)N1c2ccc(-c3cnn(CCO)c3)cc2N(C(=O)OCCC(F)(F)F)C[C@@H]1C [Example I-81, (S)-3,3,3-trifluoropropyl 4-acetyl-7-(1-(2-hydroxyethyl)-1H-pyrazol-4-yl)-3-methyl-3,4-dihydroquinoxaline-1(2H)-carboxylate] |
| > 500 | > 10000 | > 500 | CC(=O)N1c2ccc(-c3cnn(CCO)c3)cc2N(C(=O)OCC(F)(F)F)C[C@@H]1C [Example I-82, (S)-2,2,2-trifluoroethyl 4-acetyl-7-(1-(2-hydroxyethyl)-1H-pyrazol-4-yl)-3-methyl-3,4-dihydroquinoxaline-1(2H)-carboxylate] |
| > 500 | 100 to 1000 | 50 to 500 | CC(=O)N1c2ccc(-c3cnn(CCO)c3)cc2N(C(=O)OC(CF)CF)C[C@@H]1C [Example I-83, (S)-1,3-difluoropropan-2-yl 4-acetyl-7-(1-(2-hydroxyethyl)-1H-pyrazol-4-yl)-3-methyl-3,4-dihydroquinoxaline-1 (2H)-carboxylate] |
| 100 to 500 | < 100 | < 50 | CC(=O)N1c2ccc(-c3cnn(C4COC4)c3)cc2N(C(=O)Oc2ccc(F)cc2)C[C@@H]1C [Example I-85, 4-fluorophenyl (S)-4-acetyl-3-methyl-7-(1-(oxetan-3-yl)-1H-pyrazol-4-yl)-3,4-dihydroquinoxaline-1(2H)-carboxylate] |
| < 100 | 100 to 1000 | 50 to 500 | CC(=O)N1c2ccc(-c3cnn(C4COC4)c3)cc2N(C(=O)OC2CCCCC2)C[C@@H]1C [Example I-86, (S)-cyclohexyl 4-acetyl-3-methyl-7-(1-(oxetan-3-yl)-1H-pyrazol-4-yl)-3,4-dihydroquinoxaline-1(2H)-carboxylate] |
| < 100 | < 100 | < 50 | COc1ccc(OC(=O)N2C[C@H](C)N(C(C)=O)c3ccc(-c4cnn(C5COC5)c4)cc32)cc1 [Example I-87, (S)-4-methoxyphenyl 4-acetyl-3-methyl-7-(1-(oxetan-3-yl)-1H-pyrazol-4-yl)-3,4-dihydroquinoxaline-1(2H)-carboxylate] |
| < 100 | 100 to 1000 | < 50 | CC(=O)N1c2ccc(-c3cnn(C4COC4)c3)cc2N(C(=O)Oc2ccccc2)C[C@@H]1C [Example I-88, (S)-phenyl 4-acetyl-3-methyl-7-(1-(oxetan-3-yl)-1H-pyrazol-4-yl)-3,4-dihydroquinoxaline-1(2H)-carboxylate] |
| 100 to 500 | < 100 | < 50 | CC(=O)N1c2ccc(-c3cnn(C4COC4)c3)cc2N(C(=O)Oc2cccnc2)C[C@@H]1C [Example I-89, (S)-pyridin-3-yl 4-acetyl-3-methyl-7-(1-(oxetan-3-yl)-1H-pyrazol-4-yl)-3,4-dihydroquinoxaline-1(2H)-carboxylate] |
